Test results as given in publication PMC8350397, “GSK137, a potent small-molecule BCL6 inhibitor with in vivo activity, suppresses antibody responses in mice” (The Journal of Biological Chemistry, 2021).

Columns and labels:
[1] = molecular target: T1, human BCL6 BTB-POZ domain (SMRT co-repressor peptide) (Homo sapiens, UniProt P41182, C67R/C84N/C8Q); assay: BCL6 TR-FRET assay, SMRT peptide displacement; format: binding
T1 construct: BCL6-Flag-6H-Avi (5-129) C8Q, C67R, C84N proteins; Flag (C); 6H (His6) (C); made in house; host or cells: E. coli
Method: Human, mouse and rat BCL6-Flag-6H-Avi (5-129) C8Q, C67R, C84N proteins were expressed in E. coli according to standard procedures and purified on Ni-NTA, followed by ion exchange on a Source 30Q column and size exclusion on an Superdex 200 column in a buffer of 20 mM Tris, 250 mM NaCl, 5 mM DTT, 5% glycerol, pH 8.5. All protein purities were estimated to be >90% by SDS-PAGE and the expected masses were confirmed by MS analysis. For TR-FRET assay protein was enzymatically biotinylated by treatment of protein at 100 µM with a 2 fold molar excess of biotin in the presence of 2 mM ATP and 1 µM BirA enzyme in a buffer of 50 mM bicine pH 8.3, 10 mM MgCl2 at 30 °C for 1 hour, followed by extensivedialysis against 50 mM Tris-Cl pH 8.0, 100 mM NaCl, 1 mM DTT using a 3.5 kDa cut-off membrane. Biotinylation was confirmed by MS analysis and concentration was determined by Bradford assay, after which protein was stored in aliquots at -80 °C.
Acceptor-labelled SMRT peptide H2N-[…](D2)-OH was dissolved in water by mass to give a 500 µM stock solution which was stored at -20 °C. Acceptor-labelled NCOR peptide H2N-[…](Alexa Fluor 647)-OH and acceptor-labelled BCOR peptide H2N-[…](Alexa Fluor 647)-OH were dissolved to a nominal concentration of 1 mM in DMSO, and stock solution concentration was determined by absorbance at 650 nm using an extinction coefficient of 270,000 M-1cm^-1. […]

[2] = molecular target: T2, BCL6 in Farage DLBCL cells (Homo sapiens, UniProt P41182); assay: Western blot for BCL6 protein degradation; format: cell-based; conditions: 1 μM for 24 h
T2 construct: endogenous in cells; host or cells: Farage DLBCL cells
Method: Cell pellets were lysed in RIPA buffer containing protease/phosphatase inhibitor cocktail and benzonase, protein concentration determined and samples prepared in reducing conditions and 20 µg of protein loaded per lane. Proteins were then transferred onto a nitrocellulose membrane and probed with rabbit BCL6 antibody (Abcam, Cambridge, UK; ab33901) and mouse GAPDH antibody (Abcam; ab9484) at 1:2000 dilution overnight at 4°C. Blots were probed for 1 hour at room temperature with secondary antibodies (goat anti-rabbit LI-COR, 926-32211 and goat anti-mouse LI-COR, 926-68070) at 1:10,000 dilution). Images were obtained on a LI-COR Odyssey CLx Infrared Imaging System using Image Studio software (Version 5.2).

ULA cells = assay: Cell cycle analysis, ULA; format: cell-based; conditions: GSK137 0.1-10 μM; for fraction of cells in G1: BI3802 1 μM, 2 or 6 days; for dead or dying cells: day 6, BI3802 1 μM
Method: Farage, ULA, KARPAS-422, and VAL cells were seeded into 6-well tissue culture dishes in a total volume of 6 mL at densities of 6.25 x10^3, 7.81 x10^3, 6.25 x10^3, and 1.56 x10^3 cells/mL, respectively and incubated overnight at 37 °C and 5% CO2. Cells were then treated with 0.1 µM, 1 µM, or 10 µM GSK137 or 1 µM BI3802 for 2 or 6 days at 37 °C and 5% CO2. Cell cycle analysis was performed using the Click-iT EdU Alexa Fluor 647 Flow Cytometry Assay Kit (Thermo Fisher Scientific, Waltham, MA, USA) following the manufacturer’s instructions, with volumes adjusted for a […] U-bottom plate, and with an approximately 1 hour treatment with 10 μM EdU. After EdU treatment, approximately 2x10^5 cells per well were transferred into a 96-well, non-tissue culture treated U-bottom plate and stained with 6.7µg/ml final FxCycle Violet Stain for 30 minutes incubation at room temperature. Cells were then analyzed on a flow cytometer (BD FACS Canto […] or LSR FortessaTM X-20 (Becton Dickinson, Franklin Lakes, NJ, USA)) with compensation each day using one cell line and data analyzed using FlowJo software (version 10.3). Percentages of cells in each phase of the cell cycle were then averaged across technical replicates.

| SMILES | activity in cell-free assay compared with reported potency ([1]; cell-free) | degradation of intracellular BCL6 protein [2] | fraction of cells in G1 (ULA cells) | dead or dying cells (ULA cells) | IC50 ([1]; from pIC50 = 8, read-out: affinity for the BCL6 BTB-POZ domain) |
| --- | --- | --- | --- | --- | --- |
| CNC(=O)COc1cc2cc(Nc3nc(N4C[C@H](C)C[C@H](C)C4)ncc3Cl)ccc2n(C)c1=O [BI3802, reference compound] | consistent with the previously reported potency | degraded BCL6 | increased fraction of cells in G1 at day 2 | ~40% | – |
| Cc1ncccc1[C@H]1C[C@@H](c2cccc3nc(N)ccc23)Nc2c(F)cnn21 [GSK137, 5-((5S,7R)-3-Fluoro-7-(2-methylpyridin-3-yl)-4,5,6,7-tetrahydropyrazolo[1,5-a]pyrimidin-5-yl)quinolin-2-amine] | – | did not show this activity | modest dose and time-dependent G1 cell cycle arrest | no increase in dead or dying cells | 0.01 µM |
